Experimental data from US20150344444A1, “BET-PROTEIN-INHIBITING DIHYDROXYQUINOXALINONES” (BAYER PHARMA AKTIENGESELLSCHAFT, priority 2012, published 2015).

What was measured:
[1] = biological target: T1, BRD4 Bromo Domain 2 [BRD4(2)] (Homo sapiens, UniProt O60885); assay: BRD4(2)/acetylated peptide H4 binding assay (TR-FRET); settings: inhibition of interaction between His6-tagged BRD4(2) (amino acids 357-445) and acetylated histone H4 peptide
T1 construct: N-terminally His6-tagged BRD4(2) (amino acids 357-445); made in house; host or cells: E. coli
From the text: Protein-Protein Interaction Assay: BRD4/Acetylated Peptide H4 Binding Assay
2. Assay Description for BRD4 Bromo Domain 2 [BRD4(2)]
To assess the BRD4(2) binding strength of the substances described in this application, the ability thereof to inhibit the interaction between BRD4(2) and acetylated histone H4 in a dose-dependent manner was quantified.
For this purpose, a time-resolved fluorescence resonance energy transfer (TR-FRET) assay was used, which measures the binding between N-terminally His6-tagged BRD4(2) (amino acids 357-445) and a synthetic acetylated histone H4 (Ac-H4) peptide with sequence SGRGK(Ac)GGK(Ac)GLGK(Ac)GGAK(Ac)RHRKVLRDNGSGSK-biotin. The recombinant BRD4(2) protein produced in house according to Filippakopoulos et al., Cell, 2012, 149:214-231 was expressed in E. coli and purified by means of (Ni-NTA) affinity and (Sephadex G-75) size exclusion chromatography. The Ac-H4 peptide can be purchased, for example, from Biosyntan (Berlin, Germany).
In the assay, typically 11 different concentrations of each substance (0.1 nM, 0.33 nM, 1.1 nM, 3.8 nM, 13 nM, 44 nM, 0.15 μM, 0.51 μM, 1.7 μM, 5.9 μM and 20 μM) were analysed as duplicates on the same microtitre plate. For this purpose, 100-fold concentrated solutions in DMSO were prepared by serial dilutions (1:3.4) of a 2 mM stock solution into a clear, 384-well microtitre plate (Greiner Bio-One, Frickenhausen, Germany). From this, 50 nl were transferred into a black test plate (Greiner Bio-One, Frickenhausen, Germany). The test was started by the addition of 2 μl of a 2.5-fold concentrated BRD4(2) solution (final concentration typically 100 nM in the 5 μl of reaction volume) in aqueous assay buffer [50 mM HEPES pH 7.5, 50 mM sodium chloride (NaCl); 50 mM potassium fluoride (KF); 0.25 mM CHAPS and 0.05% serum albumin (BSA)] to the substances in the test plate. This was followed by a 10-minute incubation step at 22° C. for the pre-equilibration of putative complexes between BRD4(2) and the substances.
The mixture was then incubated in the dark at 22° C. for one hour and then at 4° C. for at least 3 hours and for no longer than overnight. The formation of BRD4(2)/Ac-H4 complexes was determined by the measurement of the resonance energy transfer from the streptavidin-Eu chelate to the anti-6His-XL665 antibody present in the reaction. For this purpose, the fluorescence emission was measured at 620 nm and 665 nm after excitation at 330-350 nm in a TR-FRET measuring instrument, for example a Rubystar or Pherastar (both from BMG Lab Technologies, Offenburg, Germany) or a Viewlux (Perkin-Elmer). The ratio of the emissions at 665 nm and at 622 nm was taken as an indicator of the amount of BRD4(2)/Ac-H4 complexes formed.
The data (ratios) obtained were normalized, with 0% inhibition corresponding to the mean from the measurements for a set of controls (typically 32 data points) in which all the reagents were present. In these, in place of test substances, 50 nl of DMSO (100%) were used Inhibition of 100% corresponded to the mean from the measurements for a set of controls (typically 32 data points) in which all the reagents except BRD4(2) were present. The IC50 was determined by regression analysis based on a 4-parameter equation (minimum, maximum, IC50, Hill; Y=max+(min−max)/(1+(X/IC50)Hill)).

MOLP-8 cells = assay: MOLP-8 cell proliferation assay (alamarBlue); type: cell-based; settings: inhibition of cell proliferation, 120 hours, human multiple myeloma cell line
In short: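 MOLP-8 myeloma cells in RPMI1640/20% FCS were treated with compound from 1E-5 to 1E-8 M for 120 h at 37 °C. Proliferation was measured by alamarBlue fluorescence (ex 530, em 590 nm), and the reading taken before dosing was subtracted. IC50 is relative to buffer-treated cells.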

| SMILES | IC50 [1] [µM] | IC50 (MOLP-8 cells) [µM] |
| --- | --- | --- |
| C[C@@H]1C(=O)N(C)c2ccc(Nc3ccc(C(=O)NC4CCN(C)CC4)cc3)cc2N1C1CCCCCC1 [Example 23, 4-{[(3R)-4-cycloheptyl-1,3-dimethyl-2-oxo-1,2,3,4-tetrahydroquinoxalin-6-yl]amino}-N-(1-methylpiperidin-4-yl)benzamide] | 0.152 | 1.02 |
| C[C@@H]1C(=O)N(C)c2ccc(Nc3ccc(C(=O)NCC4COC4)cc3)cc2N1C1CCOCC1 [Example 28, 4-{[(3R)-1,3-dimethyl-2-oxo-4-(tetrahydro-2H-pyran-4-yl)-1,2,3,4-tetrahydroquinoxalin-6-yl]amino}-N-(oxetan-3-ylmethyl)benzamide] | 0.513 | 1.8 |
| C[C@@H]1C(=O)N(C)c2ccc(Nc3ccc(C(=O)NCC4COC4)cc3)cc2N1C1CCCCCC1 [Example 25, 4-{[(3R)-4-cycloheptyl-1,3-dimethyl-2-oxo-1,2,3,4-tetrahydroquinoxalin-6-yl]amino}-N-(oxetan-3-ylmethyl)benzamide] | 0.357 | 1.36 |
| C[C@@H]1C(=O)N(C)c2ccc(Nc3ccc(C(=O)N4CC5(COC5)C4)cc3)cc2N1C1CCOCC1 [Example 29] | 0.158 | 1.12 |
| COc1ccc(CN2c3cc(Nc4ccc(S(=O)(=O)N(C)C)cc4)ccc3N(C)C(=O)[C@H]2C)cc1 [Example 41, 4-{[(3R)-4-(4-methoxybenzyl)-1,3-dimethyl-2-oxo-1,2,3,4-tetrahydroquinoxalin-6-yl]amino}-N,N-dimethylbenzenesulphonamide] | 0.048 | 0.077 |
| COc1cc(C(=O)NC2CCC(N3CCN(CC4CC4)CC3)CC2)ccc1Nc1ccc2c(c1)N(C1CCOCC1)[C@H](C)C(=O)N2C (stereo partly drawn) [Example 37, N-{4-[4-(cyclopropylmethyl)piperazin-1-yl]cyclohexyl}-4-{[(3R)-1,3-dimethyl-2-oxo-4-(tetrahydro-2H-pyran-4-yl)-1,2,3,4-tetrahydroquinoxalin-6-yl]amino}-3-methoxybenzamide] | 0.41 | 0.479 |
| COc1cc(C(=O)N2CCN(C)CC2)ccc1Nc1ccc2c(c1)N(C1CCOCC1)[C@H](C)C(=O)N2C [Example 38, (3R)-6-({2-methoxy-4-[(4-methylpiperazin-1-yl)carbonyl]phenyl}amino)-1,3-dimethyl-4-(tetrahydro-2H-pyran-4-yl)-3,4-dihydroquinoxalin-2(1H)-one] | 0.382 | 0.758 |
| C[C@@H]1C(=O)N(C)c2ccc(Nc3ccc(C(=O)NCCN4CCN(C)CC4)cc3)cc2N1C1CCOCC1 [Example 30, 4-{[(3R)-1,3-dimethyl-2-oxo-4-(tetrahydro-2H-pyran-4-yl)-1,2,3,4-tetrahydroquinoxalin-6-yl]amino}-N-[2-(4-methylpiperazin-1-yl)ethyl]benzamide] | 0.351 | 0.869 |
